Here are results for two compounds from patent publication US7615361B2, “Toxicity screening methods” (Ceetox, Inc., priority 2006, dated 2009).

In one series the target is P-glycoprotein (PgP) (Homo sapiens, UniProt P08183). Kind of series: P-glycoprotein (PgP) binding: MTT with and without cyclosporin A, SK-MEL28 cells. It is filed as cell-based. Also noted: SK-MEL28, human hepatocytes, HUVEC, C32, and NHEM cells were used as the test systems; endogenous in cells; host or cells: SK-MEL28 cells. Particulars: SK-MEL28 24 HR; for % Control (Compound + CSA): with cyclosporin A; for % Control (Compound): without CSA.

Series [1] is described as follows: Cell number (propidium iodide). Particulars: human, read-out: Cell Number TC50; for CC50 at 72 h: SK-MEL28 cells, SK-MEL28, 72 HR, run #2. It is filed as cell-based. How it is done:
Cell Proliferation: Cell proliferation in each well was measured with propidium iodide (PI). This specific nucleic acid binding dye fluoresces when intercalated within the nucleic acids. The 15 nm shift enhances PI fluorescence approximately 20 times while the excitation maxima are shifted 30-40 nm. During method development experiments, it was determined that Triton-X-100 was the best solution to permeabilize the H4IIE cells thereby allowing the PI access to intracellular RNA and DNA. Fluorescence was measured using a Packard Fusion plate reader or equivalent reader at 540 nm excitation and 610 nm emission.
Cell Proliferation: After incubation, the test compound was removed and Triton X-100 solution containing propidium iodide is added. The plate was incubated and read on a fluorescent plate reader. Data was collected as relative fluorescent units (RFU). The blank was subtracted from the final well RFU. It represents the average of the first and last columns which contain no cells on that particular plate. The controls are untreated cells allowed to grow on the same plate. The compounds are represented by several separate RFU data points for each of the tested concentrations. The percent change relative to controls was calculated by dividing the average RFU by the control cell RFU and multiplying by 100.
Dosing solutions were prepared in complete culture medium.

In another series the test system is NRK cells. As to the kind of experiment: Predicted Ctox from Tox-Panel. It is filed as cell-based, rat. As for the experimental part:
Studies such as these indicate that a preferred concentration for setting Ctox is the highest concentration at which there is no observed effect on any of the indicators being measured in the cluster analysis, especially a 24-hour cluster analysis. […] It will be apparent that 24 hour assays are more time-effective, and consequently, the 24 hour NOEL/Ctox represents a preferred data point to select as Ctox in a CATS assay. It will also be apparent that, with further time studies, it may be possible to select an equally suitable Ctox at other CATS assay time points (e.g., between 24 and 72 hours, or less than 24 hours).
In certain embodiments, the predicting comprises performing concentration response analyses of measurements from at least three separate assays that are employed in the cluster analysis. For example, in the cell health cluster, such predicting will involve monitoring the concentration response effect of the compound on a first health indicator which monitors cellular replication, a second cell health indicator which monitors mitochondrial function, and a third cell health indicator which monitors membrane integrity. Of course, it is understood that fourth, fifth, sixth or more cell health indicators also may be employed. From these concentration response analyses, the highest concentration of the chemical compound at which a measurable toxic effect of the chemical compound is not observable, i.e. NOEL, is determined and the Ctox is identified as the concentration that correlates to the NOEL. In choosing the concentrations of the compound for analysis, one of skill in the art should devise a dose response regimen which is selected to provide an indication of cell health at concentrations of at least two concentration values higher than the Ctox concentration.
(§1) The third experiment was done to evaluate the specificity and selectivity of the test compound in another non-tumor cell that was derived from normal rat kidney tissue. In this experiment the test compound has no effect on cell number of acute cell death up to the 500 dilution after 6 and 24 hr of exposure (FIG. 76C and 77C). Significant effects were observed on mitochondrial markers at dilutions that dropped pH to 3.7. The bar graph in FIG. 82 summarizes these effects. […] In contrast the rat tumor cell line was sensitive to the test compound and cell death occurred at the 500 dilution and could not be attributed to low pH.

Series [2] can be described thus: MemTox membrane leakage (AK / α-GST). The format is cell-based. Particulars: rat, NRK cells, read-out: GST TC50. As for the experimental part:
Membrane Leakage (α-Glutathione S-transferase and/or Adenylate Kinase): The presence of Adenylate Kinase (AK) or α-Glutathione S-transferase (α-GST), both enzyme leakage markers, was measured in the culture medium using an activity assay for Adenylate Kinase and/or an ELISA assay for α-GST. At the end of the exposure period, the medium covering the cells in each well was removed and placed into new 96-well plates with appropriate labeling. […] Luminescence (AK) values were measured with a Packard Fusion or equivalent plate reader, and absorbance (α-GST) values were measured with a Packard SpectraCount™ or equivalent reader at 450 nm and reference absorbance at 650 nm.
Membrane Leakage (α-Glutathione S-transferase and/or Adenylate Kinase): Leakage of Adenylate Kinase or α-GST from the cell into the culture medium was determined by collecting the culture medium at the end of the exposure period. Thus, the values measured represent total enzyme leakage lost over the exposure period. The control for 100% dead or maximum enzyme release was based on cells treated with 1 mM digitonin at the time of dosing. Percent dead cells relative to digitonin treated cells was determined and then subtracted from 100% to yield the percent live cells.
as §1

Sequence of P-glycoprotein (PgP) (P08183 whole entry): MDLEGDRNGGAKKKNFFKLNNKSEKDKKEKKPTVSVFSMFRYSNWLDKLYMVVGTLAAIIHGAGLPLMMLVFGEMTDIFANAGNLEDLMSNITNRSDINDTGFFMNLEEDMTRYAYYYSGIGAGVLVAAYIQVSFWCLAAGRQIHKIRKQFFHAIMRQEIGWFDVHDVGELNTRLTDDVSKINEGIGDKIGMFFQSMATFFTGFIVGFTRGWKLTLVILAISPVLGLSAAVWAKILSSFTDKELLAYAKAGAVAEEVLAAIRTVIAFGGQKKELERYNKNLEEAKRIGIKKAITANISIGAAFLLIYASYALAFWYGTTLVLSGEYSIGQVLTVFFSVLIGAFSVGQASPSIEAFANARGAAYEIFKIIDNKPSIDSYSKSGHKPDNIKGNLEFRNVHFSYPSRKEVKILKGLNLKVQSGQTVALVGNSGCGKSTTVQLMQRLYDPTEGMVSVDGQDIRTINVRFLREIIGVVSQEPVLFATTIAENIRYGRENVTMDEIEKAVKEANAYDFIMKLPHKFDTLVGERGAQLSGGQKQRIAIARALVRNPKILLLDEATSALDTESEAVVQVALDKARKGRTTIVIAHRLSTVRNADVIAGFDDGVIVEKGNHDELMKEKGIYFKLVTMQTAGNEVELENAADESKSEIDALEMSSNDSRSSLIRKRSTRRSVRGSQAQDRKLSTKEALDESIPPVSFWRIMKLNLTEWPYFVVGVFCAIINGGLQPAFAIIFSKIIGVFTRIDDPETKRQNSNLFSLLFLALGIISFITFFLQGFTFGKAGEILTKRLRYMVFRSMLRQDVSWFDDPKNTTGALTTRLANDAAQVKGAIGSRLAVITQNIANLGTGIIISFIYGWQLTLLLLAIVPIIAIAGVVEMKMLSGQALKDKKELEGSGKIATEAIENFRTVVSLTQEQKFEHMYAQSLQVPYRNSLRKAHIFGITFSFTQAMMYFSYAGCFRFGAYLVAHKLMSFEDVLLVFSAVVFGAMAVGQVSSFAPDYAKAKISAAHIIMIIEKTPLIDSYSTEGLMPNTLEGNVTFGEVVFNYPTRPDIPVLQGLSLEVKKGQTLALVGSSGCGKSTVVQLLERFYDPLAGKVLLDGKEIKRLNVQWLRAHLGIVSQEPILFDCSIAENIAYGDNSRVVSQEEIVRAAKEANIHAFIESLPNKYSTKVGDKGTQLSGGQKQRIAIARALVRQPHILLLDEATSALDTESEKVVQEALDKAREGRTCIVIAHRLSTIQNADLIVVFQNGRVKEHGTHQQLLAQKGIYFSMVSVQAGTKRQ

With `CC[C@@]1(O)C(=O)OCc2c1cc1n(c2=O)Cc2cc3ccccc3nc2-1` [CAMPTOTHECIN, Camptothecin], at P-glycoprotein (PgP), the “% Control (Compound + CSA)” value came to 63.3%. Further, the “% Control (Compound)” value at P-glycoprotein (PgP) worked out at 56.5%. Further, the CC50 at 24 h in series [1] (HUVEC) stood at 85 µM; in series [2], 100 µM. Besides, the CC50 at 72 h in series [1] is 0.1 µM. The “Predicted Ctox” value in the series on NRK cells (6 HR) and in the series with NRK cells (24 HR) was 0.1 µM in each case. For the same compound, the CC50 at 6 h in series [2] came out at 300 µM.
In the case of `C=C(C)[C@H]1Cc2c(ccc3c2O[C@@H]2COc4cc(OC)c(OC)cc4[C@@H]2C3=O)O1` [ROTENONE, Rotenone], at P-glycoprotein (PgP), the “% Control (Compound + CSA)” value is 117.3% and the “% Control (Compound)” value turned out to be 98.2%. In addition, the CC50 at 72 h in series [1] was 1 µM. Besides, in the series with NRK cells (6 HR), the “Predicted Ctox” value was 1 µM. Besides, the “Predicted Ctox” value in the series with NRK cells (24 HR) was 1 µM. Also, in series [2], the CC50 at 6 h was found to be 10 µM and the CC50 at 24 h was 10 µM.
